Read-outs that look alike come from different tables or passages of the source.
Key:
[1] = system: barley seedlings; test: Drought stress recovery of barley seedlings; format: in vivo; settings: 5 days growth, 9 days drought, 12 days watered
Procedure: (§1) The seeds of each plant were washed with 5% sodium hypochlorite for 15 minutes (with shaking at 120 rpm) and then washed three times in sterile distilled water. The seeds were placed on two layers of waterlogged 3 MM for ˜72 hours under lights at RT until hypocotyl emerged. 7-10 germinated seeds were incubated in sterile Magenta boxes containing 100 mL perlite per box, moistened with 60 ml sterile distilled water and autoclaved. The seeds were incubated in a growth cabinet with a 12 hour light/dark cycle at 22° C. until the first seedling reached approximately 5 cm height. This took approximately 4-5 days. The water was then replaced with 0.5×Hoagland solution with the test compounds (or DMSO for control samples) for 24 hour (Hoagland's No2 Basal salt mixture, Sigma, H2395, use 1.6 g/L in sterile water and autoclaved), and returned to growth cabinet. The media was then removed, the perlite was rinsed twice with sterile distilled water and the solution was replace with 35 ml 0.5 ×Hoaglands solution and returned to the growth cabinet for 24 hours.
The no drought sample was then grown in 0.5×Hoaglands solution and the solution was topped up daily.
The drought samples were exposed to drought conditions for 9 days by removing the media and returned to the growth cabinet. At recovery, 0.5×Hoaglands solution was added back to the drought sample Magenta boxes, up to the top of the perlite and this level was maintained during recovery. The plant recovery over time (up to 19 days post rescue) was recorded and the photographs from the end of the experiment are illustrated in FIG. 8, FIG. 9 and FIG. 11.
10 μM of 3-[(2E)-3-(4-fluorophenyl)prop-2-enoyl]-4-hydroxy-6-methyl-2H-pyran-2-one (labelled as 16B), 10 μM of 5,5-dimethyl-2-(2-phenylacetyl) cyclohexane-1,3-dione (labelled as 4B) and […] of AIB and 500 μM of POA were tested on barley seedlings.

[2] = system: wheat seedlings; test: Drought stress recovery of wheat seedlings; format: in vivo; settings: 10 μM, 9 days drought, 19 days recovery
Procedure: as §1, with “The media was then removed, the perlite was rinsed twice with sterile distilled water and the solution was replace with 35 ml 0.5 ×Hoaglands solution and returned to the growth cabinet for 24 hours.” left out
The drought samples were exposed to drought conditions for 9 days by removing the media and returned to the growth cabinet. […] The plant recovery over time (up to 19 days post rescue) was recorded and the photographs from the end of the experiment are illustrated in FIG. 8, FIG. 9 and FIG. 11.
The drought testing was repeated with wheat seedlings and the results are shown in FIGS. 9 and 10 wherein the data was measured following 5 days of growth, 9 days of drought and 19 days of recovery. […]

[3] = system: rye seedlings; test: Drought stress recovery of rye seedlings; format: in vivo; settings: 10 μM, 9 days drought
Procedure: as §1
The no drought sample was then grown in 0.5×Hoaglands solution and the solution was topped up daily. […]
The drought testing was repeated with rye seedlings and the results are shown in FIG. 11 wherein the data was measured following 5 days of growth, 9 days of drought and 19 days of recovery. […]

[4] = system: Carnations; test: Cut carnation flower senescence (flower size); format: in vivo; settings: for slowing of flower senescence versus control: 0.01 mM or 0.02 mM, flower size after 9 days; for performance versus POA and AIB: 0.01/0.02 mM versus POA 0.5/1 mM, AIB 5/10 mM
Procedure: Carnations were cut to approximately 5 cm long stems and placed in a solution wherein the solution comprised 5 mL water and either no additional components (control), 0.01 mM or 0.02 mM of 5,5-dimethyl-2-(2-phenylacetyl) cyclohexane-1,3-dione (labelled as 4B) or 3-[(2E)-3-(4-fluorophenyl)prop-2-enoyl]-4-hydroxy-6-methyl-2H-pyran-2-one (labelled as 16B) or 0.5 mM or 1 mM of POA or 10 mM or 5mM of AIB were added. The flower size coverage was measured and the petal shrinkage, or reduction in flower size, is used as an indicator of flower senescence.

[5] = system: D. discoideum WT cells; test: D. discoideum multicellular development, block at mound stage; format: cell-based
Procedure: The effect of MyA on multicellular development of D. discoideum was measured. The MyA was tested at a concentration of 100 μM.
The effect of ACO loss on multicellular development was assessed. ACO-D. discoideum mutants were engineered and compared to standard wild type D. discoideum cells.

[6] = system: A. thaliana; test: A. thaliana root and hypocotyl extension after 6 days; format: in vivo; settings: for concentration from which dose dependent effect on root/hypocotyl growth is seen: versus DMSO control, FIG. 6B; for potency compared to AIB: hypocotyl or root extension, from table 3; for effect on root and hypocotyl growth: FIG. 6A
Procedure: In these experiments, A. thaliana seeds were germinated and grown in 24 h light conditions for 6 days and root and hypocotyl length were recorded (FIG. 6A and 6B).
The IC50 values for the root or hypocotyl extension after 6 days for 5,5-dimethyl-2-(2-phenylacetyl) cyclohexane-1,3-dione (ACOi-84-16-4), 3-[(2E)-3-(4-fluorophenyl)prop-2-enoyl]-4-hydroxy-6-methyl-2H-pyran-2-one (ACOi-74-12-16) and MyA, compared to known compounds AIB and POA are presented in table 3. Images of the plant growth and the root hairs are shown in FIG. 6B for 5,5-dimethyl-2-(2-phenylacetyl) cyclohexane-1,3-dione (ACOi-84-16-4) and 3-[(2E)-3-(4-fluorophenyl)prop-2-enoyl]-4-hydroxy-6-methyl-2H-pyran-2-one (ACOi-74-12-16) and FIG. 6A for MyA and comparably for AIB and POA.

[7] = system: csA, cAR1, pspA, ecmA expression; test: Developmental gene expression in D. discoideum by qPCR; format: cell-based; settings: 100 μM, 0 to 20 hours
Procedure: To provide quantitative analysis of the developmental effects of MyA, wild type cells were induced to develop on nitrocellulose filters for time periods between 0 and 20 hours, using cells under solvent only conditions, in the presence of MyA (100 μM), or in the presence of MyA and CEPA. Developmental gene expression associated with early aggregation (csA), […], and in late development (ecmA) were assessed using qPCR. […] Similar delays in peak gene expression were also seen for carA (peak 4 h), and pspA (peak 12 h), and ecmA (peak 20 h), following MyA treatment, and these delays were rescued by addition of exogenous ethylene. These experiments confirm a MyA-dependent delay in D. discoideum development that is rescued by exogenous ethylene application, consistent with a role for MyA in inhibiting ACO activity and slowing crop maturation.

[8] = system: D. discoideum cells; test: Inhibition of D. discoideum unicellular growth (wild type); format: cell-based
Procedure: The unicellular growth rate and multicellular of D. discoideum cells on exposure to MyA was tested and the results are illustrated in FIG. 1 and FIG. 2.
D. discoideum cells were divided by binary fission in nutrient-rich media, initially with a lag phase (0-120 h), and then an exponential phase. The D. discoideum cells were then exposed to MyA at concentrations of 0 μm, 1 μm, 10 μm, 15 μm, 25 μm, 50 μm and 100 μm.

[9] = system: ethylene production; test: Ethylene production of D. discoideum cells, headspace GCMS; format: cell-based; settings: 500 μM
Procedure: Wild type cells in the presence or absence of MyA (500 μM), or ACO-cells were maintained in sealed small flasks with limited head space over 36 h, and headspace gas was taken at 6-hour intervals and analysed by GCMS.

[10] = system: ACO ablated D. discoideum cells (ACO-); test: Growth sensitivity of ACO-mutant D. discoideum cells to MyA; format: cell-based
Description: The cell and developmental role of the D. discoideum ACO protein were investigated. FIG. 3C illustrates the resistance to the growth and developmental inhibitory effect of MyA on wild type D. discoideum cells (WT) and ACO ablated D. discoideum cells (ACO-).

[11] = Arabidopsis thaliana, 144 h, Hypocotyl, 6 days, read-out: IC50 hypocotyl extension
[12] = Arabidopsis thaliana, 144 h, Root, 6 days, read-out: IC50 root extension
[13] = Hypocotyl, 6 days, read-out: IC50 hypocotyl extension

Compound | recovery after drought ([1]; 10 μM) | slowing of flower senescence versus control [4] | performance versus POA and AIB [4] | efficacy in development block model ([5]; 100 μM) | concentration from which dose dependent effect on root/hypocotyl growth is seen ([6]; 6 days) [μm] | IC50 [6, 11] [µM] | IC50 [6, 12] [µM] | potency compared to AIB [6] | effect on root and hypocotyl growth ([6]; 6 days) | IC50 [6, 13] [µM] | other results
Cc1cc(O)c(C(=O)/C=C/c2ccc(F)cc2)c(=O)o1 [ACOi-74-12-16, 3-[(2E)-3-(4-fluorophenyl)prop-2-enoyl]-4-hydroxy-6-methyl-2H-pyran-2-one] | comparable seedling height to the control sample which had been watered throughout the duration | significant effect | comparable performance | potent efficacy | 5 | 0.79 | 1.02 | 1580 fold | – | – | recovery after drought versus untreated drought control [2]: improved recovery; seedling height and mass versus drought control ([2]; FIG. 10): increased height and mass; recovery after drought versus untreated drought control ([3]; 19 days recovery): improved recovery; recovery after drought ([3]; 23 days recovery): continues to recover
CC1(C)CC(=O)C(C(=O)Cc2ccccc2)C(=O)C1 [ACOi-84-16-4, 5,5-dimethyl-2-(2-phenylacetyl)cyclohexane-1,3-dione] | comparable growth to the same treated with 10,000 μM AIB | significant effect | comparable performance | potent efficacy | 5 | 8.2 | 6.9 | over 5400 fold | – | – | –
CC(C)(N)C(=O)O [AIB, a-aminoisobutyric acid, reference compound] | – | – | – | – | – | – | – | – | dose-dependent reduction | 4290 | recovery after drought ([1]; 2,000 μM): did slightly better; recovery after drought ([1]; 10,000 μM): did better still; IC50 ([6]; Root, 6 days, read-out: IC50 root extension): 1620 µM
CC1C(=O)C(C(=O)CCc2ccccc2)C(=O)C(C)(C)C1=O (centres unmarked) [MyA, 2,2,4-trimethyl-6-(3-phenylpropanoyl) cyclohexane-1,3,5-trione] | – | – | – | – | – | 59.4 | 53.3 | – | comparative reduction | – | peak expression of developmental genes (csA, carA, pspA, ecmA) [7]: delayed; effect on unicellular growth ([8]; 10 μM, P<0.05): significant reduction; effect on unicellular growth ([8]; 100 μM): block in growth; IC50 ([8]; Dictyostelium discoideum, wild type D. discoideum, secondary plot of normalised growth rate): 7.6 µM; decrease in ethylene production ([9]; 12 hours, P=0.031): 39.5%; decrease in ethylene production ([9]; 36 hours, P=0.0025): 37.9%; effect on multicellular development ([5]; 100 μM, 24 hours): later stages of development were delayed; development after extended incubation ([5]; 100 μM, 36 hours): developed into fully mature fruiting bodies; lethality of high dose ([5]; 100 μM, 36 hours): not lethal; rescue of developmental delay by exogenous ethylene (CEPA) ([5]; MyA 100 μM plus CEPA): partially rescued; lowest concentration shown to have an effect on growth ([6]; root and hypocotyl, 6 days, 24 h light): 0.025 mM; lowest effective concentration, times lower than AIB ([6]; versus AIB): 20 times; lowest effective concentration, times lower than POA ([6]; versus POA): 4 times; reduction in potency in the ACO-mutant versus wild type [10]: four-fold; IC50 ([10]; Dictyostelium discoideum, ACO- D. discoideum cells): 29.9 µM
O=C(O)c1cnccn1 [POA, pyrazinecarboxylic acid, reference compound] | – | – | – | – | – | – | 213 | – | dose-dependent reduction | 184 | recovery after drought ([1]; 500 μM): did not show positive result
